Measured values taken from publication PMC11881906, “Development of xanthone derivatives as effective broad-spectrum antimicrobials: Disrupting cell wall and inhibiting DNA synthesis” (Science Advances, 2025).

Assays:
[1] = In vitro cytotoxicity (CC50); type: cell-based; conditions: human, mouse, HepG2 cells and mouse fibroblast NCTC clone 929 cells; mammalian cells, CCK-8; read-out: concentration of cytotoxicity 50% (CC50)
Procedure: Cytotoxicity of the compound tested was assessed by CCK-8 assays as previously described ([71]). […] Following a 24-hour incubation, 10 μl of CCK-8 reagent was added to each well and incubated for 1 hour. The absorbance at 450 nm was measured by a microplate reader. All measurements were repeated three times with duplicates each time.

E. coli DNA gyrase = target: T1, E. coli DNA gyrase (Escherichia coli, UniProt P0AES4+P0AES6); test: DNA gyrase supercoiling inhibition assay; type: biochemical
T1 construct: purchased ProFoldin (Worcester, MA)
Procedure: E. coli topoisomerase enzymes (II and IV) were supplied by ProFoldin (Worcester, MA), and assays were performed according to the manufacturer’s instructions. Briefly, the DNA supercoiling assay was conducted in a volume of 40 μl containing 24 μl of H2O, 4 μl of 10× buffer, 4 μl of 10× relaxed DNA, 4 μl of 10× enzyme, and 4 μl of 10 mM adenosine triphosphate (ATP). Following a 60-min incubation at room temperature, 200 μl of H2O was added to each reaction mixture. Topoisomerase IV decatenation inhibition assay was conducted in a volume of 50 μl containing 38.5 μl of H2O, 5 μl of 10× buffer, 5 μl of 10× concatenated DNA, 0.5 μl of 100× enzyme, and 1 μl of 10 mM ATP. After 60 min of incubation at 37°C, 5 μl of 0.4 M EDTA was added to stop the reaction. […]
In the supercoiling inhibition assay, the fluorescence intensity was measured using freshly prepared 1× H19 dye, which was prepared by diluting 100× H19 dye with 10 mM tris-HCl and 10 mM NaCl (pH 7.0). […] In the decatenation inhibition assay, the change in fluorescence intensity was monitored using the 1× fluorescence dye after diluting the 20× dye with water. The reaction solution eluted from the column was mixed with 150 μl of 1× fluorescence dye. The fluorescence intensity for both assays was lastly detected at 535 nm using an excitation wavelength of 485 nm. […]

rabbit erythrocytes = test: Hemolysis assay; type: cell-based; conditions: concentration causing 50% hemolysis of red blood cells; 1 hour, 37°C
Procedure: The hemolytic activity of antimicrobial agents was investigated as previously described ([70]). Briefly, the rabbit erythrocytes were centrifuged at 2500 rpm for 3 min before being washed twice with sterile phosphate-buffered saline (PBS) (pH 7.4). Subsequently, the erythrocytes were diluted with PBS to a final concentration of 8% (v/v). The DMSO-dissolved compounds were twofold serially diluted in PBS to achieve a final concentration with DMSO less than 0.5%. […] Sterile PBS and 0.2% Triton X-100 were used as negative and positive controls, respectively. After 1 hour of incubation at 37°C, the tested samples were centrifuged at 2500 rpm for 5 min, and aliquots of the supernatant were added to 96-well microplates. The hemoglobin release was determined by measuring the absorbance at 576 nm using a BioTek multimode reader. The percentage of hemolytic activity was calculated using the following formula: Hemolysis rate (%) = [OD576 (compound) − OD576 (PBS)]/[OD576 (Triton X-100) − OD576 (PBS)] × 100. All measurements were repeated three times with duplicates each time.

T1 sequence (P0AES4 whole entry, one chain of several): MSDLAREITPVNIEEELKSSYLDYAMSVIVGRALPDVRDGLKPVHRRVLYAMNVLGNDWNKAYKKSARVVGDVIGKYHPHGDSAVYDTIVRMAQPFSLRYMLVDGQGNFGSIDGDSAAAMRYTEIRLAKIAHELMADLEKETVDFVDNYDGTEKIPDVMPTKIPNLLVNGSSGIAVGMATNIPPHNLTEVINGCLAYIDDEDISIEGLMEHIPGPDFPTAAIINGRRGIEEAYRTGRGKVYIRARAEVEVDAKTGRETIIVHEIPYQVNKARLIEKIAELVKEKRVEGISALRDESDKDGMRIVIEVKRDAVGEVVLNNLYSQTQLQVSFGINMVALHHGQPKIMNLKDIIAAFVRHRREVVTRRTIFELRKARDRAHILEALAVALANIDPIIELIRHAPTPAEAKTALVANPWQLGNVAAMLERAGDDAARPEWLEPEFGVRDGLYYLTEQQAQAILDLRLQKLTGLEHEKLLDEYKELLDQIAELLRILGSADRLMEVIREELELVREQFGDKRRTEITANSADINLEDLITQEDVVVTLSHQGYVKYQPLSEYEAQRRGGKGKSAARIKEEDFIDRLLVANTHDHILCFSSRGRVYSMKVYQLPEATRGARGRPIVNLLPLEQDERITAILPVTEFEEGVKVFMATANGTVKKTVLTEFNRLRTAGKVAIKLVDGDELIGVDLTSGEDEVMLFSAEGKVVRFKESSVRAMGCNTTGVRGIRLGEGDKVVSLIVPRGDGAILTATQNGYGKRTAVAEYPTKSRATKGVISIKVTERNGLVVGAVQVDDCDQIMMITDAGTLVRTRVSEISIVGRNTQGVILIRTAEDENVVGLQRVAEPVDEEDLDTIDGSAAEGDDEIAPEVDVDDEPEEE

## CC(C)=CCOc1cc(OCCCNC(=N)N)cc2oc3cc(OCCCNC(=N)N)ccc3c(=O)c12 [XT17]
[1]
  CC50 at 24 h: > 50 µg/mL
E. coli DNA gyrase; 1× MIC
  Inhibition of DNA gyrase (%): 81.45 ± 1.33%
E. coli DNA gyrase; concentration not stated (Discussion)
  inhibitory effect on bacterial DNA gyrase in vitro: ~ 90%
Rabbit erythrocytes
  HC50: >200 µg/mL
